The structures appear in SMILES notation.

T1 sequence (P53610 whole entry, one chain of several): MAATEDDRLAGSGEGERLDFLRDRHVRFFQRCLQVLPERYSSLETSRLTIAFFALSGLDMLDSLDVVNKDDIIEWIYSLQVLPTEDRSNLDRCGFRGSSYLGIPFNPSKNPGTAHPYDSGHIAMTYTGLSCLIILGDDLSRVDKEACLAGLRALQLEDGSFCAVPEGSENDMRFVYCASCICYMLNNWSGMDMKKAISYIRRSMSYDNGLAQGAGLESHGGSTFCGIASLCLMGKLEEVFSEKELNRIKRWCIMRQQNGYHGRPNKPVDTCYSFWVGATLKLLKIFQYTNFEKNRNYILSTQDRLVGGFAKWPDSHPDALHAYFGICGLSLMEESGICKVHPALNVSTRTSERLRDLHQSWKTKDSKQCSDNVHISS

The first experiment addresses T1, GGPTase I (Rattus norvegicus, UniProt P53610+Q04631).
T1 construct: made in house; host or cells: Sf9 insect cells (baculovirus co-infection)
Kind of experiment: GGPTase I inhibition assay ([3H]GGPP transfer to Ras-CVLL). As to conditions: Table I; test compound 100 nM; mixtures of regioisomers and/or enantiomers unless indicated. It counts as biochemical. As to the method: GGPTase-I activity was determined by the method of Casey et al, Proc. Natl. Acad. Sci. USA, 1991, 88, 8631-8635. This method measures the transfer of isoprenoid from ^3H-geranylgeranyl diphosphate (GGPP) into a Ras protein with a C-terminal leucine-for-serine substitution (designated as Ras-CVLL).
Assays for the inhibition studies of GGPTase I were performed in a manner analogous to that described by Casey, et al., Proc. Natl. Acad. Sci. USA, 1991, 88, 8631-8635, with the following modifications. For those assays, the reaction mixtures contained the following components in 50 μl:0.25 μM [^3H]GGPP (sp. act. 8-10 Ci/mmol), 2.5 μM Ras-CVLL, 50 mM Tris-Cl, pH 7.7, 20 mM KCl, 5 mM MgCl2, 5 μM ZnCl2, 1 mM DTT, 0.5 mM Zwittergent 3-14 and the desired amount of the compound to be tested for inhibitory potential. After pre-equilibrating the assay mixture at 30° C. in the absence of the enzyme, the reaction was initiated by addition of the enzyme (75 ng). Following an about 10 minute incubation at about 30° C., the reactions were terminated by addition of about 0.5 ml of about 4% SDS. About 40 mg of bovine brain membranes was added to the samples to enhance recovery during precipitation. Product was precipitated by addition of about 0.5 ml of 30% TCA, allowed to stand at room temperature for about 15 minutes, and processed by filtration through glass-fiber filters as described previously (Reiss et al., Methods: Companion to Methods in Enzymology, 1991, 1, 241-245). Reactions were never allowed to proceed to more than 10% completion based on the limiting substrate. Assays for the inhibition studies of FPTase were performed analogous the GGPTase I inhibition studies, except [^3H]GGPP was replaced with 0.25 μM of [^3H]FPP (sp. act. 8-10 ci/mmol) and Ras-CVLL was replaced with 1 μM H-Ras.
Using the method described above, the GGPTase I inhibitory activities of some of the compounds of the present invention were evaluated. The concentration of the test compound used was 100 nM. Mixtures of regioisomers and/or enantiomers are used unless indicated otherwise (for example, the position of substituents on the dimethyl cyclobutane moiety).
With `CN1CC[C@H](c2ccccc2)[C@H]1C(N)=O`, the Inhibition entry is “Yes”.
Regarding `CN1Cc2ccccc2C[C@H]1C(N)=O`, the Inhibition result was “Yes”.

The same experiment, now with this note: Table II; test compound 100 nM; mixtures of regioisomers and/or enantiomers unless indicated.
For `CC1(C)[C@@H](CC(=O)NC(CO)Cc2ccccc2)C[C@@H]1c1cc(-c2cccnc2)nn1-c1ccc(Cl)c(Cl)c1` (stereo partly shown) [CH2OH], the Inhibition entry is “yes”.
Still for that read-out and setting: the entry for `CC1(C)[C@@H](CC(=O)NC(Cc2ccccc2)C(=O)OCc2ccccc2)C[C@@H]1c1cc(-c2cccnc2)nn1-c1ccc(Cl)c(Cl)c1` (stereo partly shown) [CO2Bn] is “yes”; for `CC1(C)[C@@H](CC(=O)NC(Cc2ccccc2)C(=O)O)C[C@@H]1c1cc(-c2cccnc2)nn1-c1ccc(Cl)c(Cl)c1` (stereo partly shown) [CO2H] it is “yes”.
Regarding `COC(=O)C(Cc1ccccc1)NC(=O)C[C@H]1C[C@H](c2cc(-c3cccnc3)nn2-c2ccc(Cl)c(Cl)c2)C1(C)C` (stereo partly shown) [CO2Me], the Inhibition entry is “yes”.
Consider `CC1(C)[C@@H](CC(=O)NC(Cc2ccccc2)C(N)=O)C[C@@H]1c1cc(-c2cccnc2)nn1-c1ccc(Cl)c(Cl)c1` (stereo partly shown) [CONH2], for which the Inhibition result was “yes”.
In the case of `CNC(=O)C(Cc1ccccc1)NC(=O)C[C@H]1C[C@H](c2cc(-c3cccnc3)nn2-c2ccc(Cl)c(Cl)c2)C1(C)C` (stereo partly shown) [CONHMe], the Inhibition result is “yes”.
Consider `CC1(C)[C@@H](CC(=O)NCCc2ccccc2)C[C@@H]1c1cc(-c2cccnc2)nn1-c1ccc(Cl)c(Cl)c1` [H], for which the Inhibition entry is “yes”.

Still in this experiment, the particulars now being: Table V; test compound 100 nM; mixtures of regioisomers and/or enantiomers unless indicated.
With `CC1(C)[C@@H](CC(=O)NC(Cc2ccccc2)C(N)=O)C[C@@H]1c1cc(-c2cccnc2)nn1-c1ccc(Cl)c(Cl)c1` (stereo partly shown) [Bn], the Inhibition entry is “yes”.
Turning to `CC1(C)[C@@H](CC(=O)NC(CO)Cc2ccccc2)C[C@@H]1c1cc(-c2cccnc2)nn1-c1ccc(Cl)c(Cl)c1` (stereo partly shown) [CH2OH], the Inhibition result is “yes”.
Same read-out and setting: next, `CC1(C)[C@@H](CC(=O)NCCc2ccccc2)C[C@@H]1c1cc(-c2cccnc2)nn1-c1ccc(Cl)c(Cl)c1` [H]: “yes”; `CC1(C)[C@@H](CC(=O)NC(C(N)=O)c2ccccc2)C[C@@H]1c1cc(-c2cccnc2)nn1-c1ccc(Cl)c(Cl)c1` (stereo partly shown) [Ph]: “yes”.

Still in this experiment, the particulars now being: Table VI; test compound 100 nM; mixtures of regioisomers and/or enantiomers unless indicated.
In the case of `CC1(C)[C@@H](CNC(=O)[C@@H](N)Cc2ccccc2)C[C@H]1c1cc(-c2cccnc2)nn1-c1ccc(Cl)c(Cl)c1`, the Inhibition result is recorded as “yes”.
With `CN(C(=O)C[C@H]1C[C@H](c2cc(-c3cccnc3)nn2-c2ccc(Cl)c(Cl)c2)C1(C)C)C(Cc1ccccc1)C(N)=O` (stereo partly shown), the Inhibition entry is on record as “yes”.
With `CC1(C)[C@@H](CCNC(Cc2ccccc2)C(N)=O)C[C@H]1c1cc(-c2cccnc2)nn1-c1ccc(Cl)c(Cl)c1` (stereo partly shown), the Inhibition result is “no”.

Source of the values: patent US6664277B1, “Prenylation inhibitors containing dimethylcyclobutane and methods of their synthesis and use” (PPD Discovery, Inc., priority 2002, dated 2003).
